# Experimental data from ChEMBL document CHEMBL1143804, “Synthesis and antibacterial evaluation of 1beta-methyl-2-[5-(1-methoxyimino-2-substituted sulfonamide ethyl)pyrrolidin-3-ylthio]carbapenems and their related compounds” (2007).
# What was measured:
# [1] = system: Klebsiella pneumoniae; assay: Antibacterial activity against Klebsiella pneumonise 477; assay type: functional
# [2] = system: Enterobacter cloacae; assay: Antibacterial activity against Enterobacter cloacae; assay type: functional
# [3] = system: Enterobacter cloacae; assay: Antibacterial activity against Enterobacter cloacae 417; assay type: functional
# [4] = system: Serratia marcescens; assay: Antibacterial activity against Serratia marcescens 370; assay type: functional
# [5] = system: Serratia marcescens; assay: Antibacterial activity against Serratia marcescens 6093; assay type: functional
# [6] = system: Serratia marcescens; assay: Antibacterial activity against Serratia marcescens 14273; assay type: functional
# [7] = system: Proteus mirabilis; assay: Antibacterial activity against Proteus mirabilis 112/3; assay type: functional
# [8] = system: Proteus mirabilis; assay: Antibacterial activity against Proteus mirabilis 174/3; assay type: functional
# [9] = system: Proteus vulgaris; assay: Antibacterial activity against Proteus vulgaris 868; assay type: functional
# [10] = system: Providencia rettgeri; assay: Antibacterial activity against Proteus rettgeri 936; assay type: functional
# [11] = system: Escherichia coli; assay: Antibacterial activity against Escherichia coli TEM; assay type: functional
# [12] = system: Streptococcus pyogenes; assay: Antibacterial activity against Streptococcus pyogenes 308A; assay type: functional
# [13] = system: Streptococcus pyogenes; assay: Antibacterial activity against Streptococcus pyogenes 77A; assay type: functional
# [14] = system: Staphylococcus aureus; assay: Antibacterial activity against Staphylococcus aureus SG511; assay type: functional
# [15] = system: Staphylococcus aureus; assay: Antibacterial activity against Staphylococcus aureus 285; assay type: functional
# [16] = system: Escherichia coli; assay: Antibacterial activity against Escherichia coli DC2; assay type: functional
# [17] = system: Pseudomonas aeruginosa; assay: Antibacterial activity against Pseudomonas aeruginosa 9027; assay type: functional
# [18] = system: Salmonella typhimurium; assay: Antibacterial activity against Salmonella Typhimurium; assay type: functional, Salmonella enterica subsp. enterica serovar Typhimurium; details: Salmonella enterica
# [19] = system: Klebsiella aerogenes; assay: Antibacterial activity against Klebsiella aerogenes 1522E; assay type: functional
# [20] = system: Enterobacter cloacae; assay: Antibacterial activity against Enterobactor cloacae 1321E; assay type: functional
# [21] = system: Staphylococcus aureus; assay: Antibacterial activity against Staphylococcus aureus giorgio; assay type: functional
# [22] = system: Staphylococcus aureus; assay: Antibacterial activity against Staphylococcus aureus 209P; assay type: functional
# [23] = system: Staphylococcus aureus; assay: Antibacterial activity against Staphylococcus aureus 503; assay type: functional
# [24] = system: Micrococcus luteus; assay: Antibacterial activity against Micrococcus luteus ATCC 9341; assay type: functional
# [25] = system: Enterococcus faecium; assay: Antibacterial activity against Streptococcus faecium 77A; assay type: functional
# [26] = system: Streptococcus agalactiae; assay: Antibacterial activity against Streptococcus agalactiae B; assay type: functional
# [27] = system: Enterococcus durans; assay: Antibacterial activity against Streptococcus durans D; assay type: functional
# [28] = system: Bacillus subtilis; assay: Antibacterial activity against Bacillus subtilts ATCC 6633; assay type: functional
# [29] = system: Priestia megaterium; assay: Antibacterial activity against Bacillus megaterium; assay type: functional
# [30] = system: Pseudomonas aeruginosa; assay: Antibacterial activity against Pseudomonas aeruginosa 77/2; assay type: functional
# [31] = system: Pseudomonas aeruginosa; assay: Antibacterial activity against Pseudomonas aeruginosa 110/2; assay type: functional
# [32] = system: Pseudomonas aeruginosa; assay: Antibacterial activity against Pseudomonas aeruginosa 880/2; assay type: functional
# [33] = system: Burkholderia cepacia; assay: Antibacterial activity against Pseudomonas cepacia; assay type: functional
# [34] = system: Escherichia coli; assay: Antibacterial activity against Escherichia coli 086; assay type: functional
# [35] = system: Escherichia coli; assay: Antibacterial activity against Escherichia coli 0114; assay type: functional
# [36] = system: Escherichia coli; assay: Antibacterial activity against Escherichia coli 0126; assay type: functional
# [37] = system: Escherichia coli; assay: Antibacterial activity against Escherichia coil V6311/65; assay type: functional
# [38] = system: Escherichia coli; assay: Antibacterial activity against Escherichia coil 1507; assay type: functional
# [39] = Antibacterial activity against Salmonella oranienberg; assay type: functional, Salmonella enterica subsp. enterica serovar Oranienburg; details: Salmonella enterica
# [40] = system: Salmonella typhi; assay: Antibacterial activity against Salmonella typhi; assay type: functional, Salmonella enterica subsp. enterica serovar Typhi; details: Salmonella enterica
# [41] = system: Salmonella; assay: Antibacterial activity against Salmonella orion; assay type: functional
# [42] = Antibacterial activity against Salmonella give; assay type: functional, Salmonella enterica subsp. enterica serovar Give; details: Salmonella enterica
# [43] = system: Providencia rettgeri; assay: Antibacterial activity against Proteus rettgeri 937; assay type: functional
# [44] = system: Pasteurella multocida; assay: Antibacterial activity against Pasteurella multocida; assay type: functional
# [45] = system: Corynebacterium diphtheriae; assay: Antibacterial activity against Corynebacterium diphtheriae; assay type: functional
# [46] = system: Trueperella pyogenes; assay: Antibacterial activity against Corynebacterium pyogenes; assay type: functional
# [47] = system: Salmonella paratyphi; assay: Antibacterial activity against Salmonella paratyphi A; assay type: functional, Salmonella enterica subsp. enterica serovar Paratyphi A; details: Salmonella enterica
smiles,measurement,setting,value
CNS(=O)(=O)NC/C(=N\OC)[C@@H]1C[C@H](SC2=C(C(=O)O)N3C(=O)[C@H]([C@@H](C)O)[C@H]3[C@H]2C)CN1,MIC,[1],0.03 µg/mL
same,MIC,[2],0.01 µg/mL
same,MIC,[3],0.05 µg/mL
same,MIC,[4],0.2 µg/mL
same,MIC,[5],0.2 µg/mL
same,MIC,[6],0.4 µg/mL
same,MIC,[7],0.2 µg/mL
same,MIC,[8],0.2 µg/mL
same,MIC,[9],0.4 µg/mL
same,MIC,[10],0.4 µg/mL
same,MIC,[11],0.025 µg/mL
same,MIC,[12],< 0.01 µg/mL
same,MIC,[13],< 0.01 µg/mL
same,MIC,[14],0.049 µg/mL
same,MIC,[15],0.098 µg/mL
same,MIC,[16],0.013 µg/mL
same,MIC,[17],1.56 µg/mL
same,MIC,[18],0.025 µg/mL
same,MIC,[19],0.025 µg/mL
same,MIC,[20],0.013 µg/mL
same,MIC,[21],0.03 µg/mL
same,MIC,[22],0.03 µg/mL
same,MIC,[23],0.03 µg/mL
same,MIC,[24],0.01 µg/mL
same,MIC,[25],< 0.01 µg/mL
same,MIC,[26],0.03 µg/mL
same,MIC,[27],0.1 µg/mL
same,MIC,[28],0.03 µg/mL
same,MIC,[29],0.05 µg/mL
same,MIC,[30],1.56 µg/mL
same,MIC,[31],0.8 µg/mL
same,MIC,[32],0.4 µg/mL
same,MIC,[33],0.4 µg/mL
same,MIC,[34],0.03 µg/mL
same,MIC,[35],0.03 µg/mL
same,MIC,[36],0.03 µg/mL
same,MIC,[37],0.05 µg/mL
same,MIC,[38],0.05 µg/mL
same,MIC,[39],0.2 µg/mL
same,MIC,[40],0.03 µg/mL
same,MIC,[41],0.1 µg/mL
same,MIC,[42],0.1 µg/mL
same,MIC,[43],0.4 µg/mL
same,MIC,[44],0.05 µg/mL
same,MIC,[45],0.01 µg/mL
same,MIC,[46],0.01 µg/mL
CCS(=O)(=O)NC/C(=N\OC)[C@@H]1C[C@H](SC2=C(C(=O)O)N3C(=O)[C@H]([C@@H](C)O)[C@H]3[C@H]2C)CN1,MIC,[11],0.195 µg/mL
same,MIC,[12],0.195 µg/mL
same,MIC,[13],0.098 µg/mL
same,MIC,[14],0.195 µg/mL
same,MIC,[15],0.781 µg/mL
same,MIC,[16],0.391 µg/mL
same,MIC,[17],12.5 µg/mL
same,MIC,[18],1.56 µg/mL
same,MIC,[19],0.781 µg/mL
same,MIC,[20],0.781 µg/mL
CO/N=C(\CNC(C)=O)[C@@H]1C[C@H](SC2=C(C(=O)O)N3C(=O)[C@H]([C@@H](C)O)[C@H]3[C@H]2C)CN1,MIC,[11],0.025 µg/mL
same,MIC,[12],0.013 µg/mL
same,MIC,[13],< 0.01 µg/mL
same,MIC,[14],0.049 µg/mL
same,MIC,[15],0.098 µg/mL
same,MIC,[16],0.025 µg/mL
same,MIC,[17],1.56 µg/mL
same,MIC,[18],0.049 µg/mL
same,MIC,[19],0.049 µg/mL
same,MIC,[20],0.013 µg/mL
CCCNS(=O)(=O)NC/C(=N\OC)[C@@H]1C[C@H](SC2=C(C(=O)O)N3C(=O)[C@H]([C@@H](C)O)[C@H]3[C@H]2C)CN1,MIC,[11],0.195 µg/mL
same,MIC,[12],0.049 µg/mL
same,MIC,[13],0.025 µg/mL
same,MIC,[14],0.195 µg/mL
same,MIC,[15],0.195 µg/mL
same,MIC,[16],0.098 µg/mL
same,MIC,[17],12.5 µg/mL
same,MIC,[18],0.098 µg/mL
same,MIC,[19],0.195 µg/mL
same,MIC,[20],0.195 µg/mL
"CC(O)[C@H]1C(=O)N2C(C(=O)O)=C(SCCNC=N)C[C@H]12 (single isomer, unassigned) [IMIPENEM ANHYDROUS]",MIC,[1],0.2 µg/mL
same,MIC,[2],0.1 µg/mL
same,MIC,[3],0.1 µg/mL
same,MIC,[4],0.2 µg/mL
same,MIC,[5],0.4 µg/mL
same,MIC,[6],0.8 µg/mL
same,MIC,[7],0.2 µg/mL
same,MIC,[8],0.1 µg/mL
same,MIC,[9],0.1 µg/mL
same,MIC,[10],0.2 µg/mL
same,MIC,[11],0.195 µg/mL
same,MIC,[12],< 0.01 µg/mL
same,MIC,[13],0.013 µg/mL
same,MIC,[14],0.098 µg/mL
same,MIC,[15],0.013 µg/mL
same,MIC,[16],0.391 µg/mL
same,MIC,[17],0.781 µg/mL
same,MIC,[18],0.781 µg/mL
same,MIC,[19],0.098 µg/mL
same,MIC,[20],0.098 µg/mL
same,MIC,[21],0.01 µg/mL
same,MIC,[22],0.01 µg/mL
same,MIC,[23],< 0.01 µg/mL
same,MIC,[24],0.01 µg/mL
same,MIC,[25],< 0.01 µg/mL
same,MIC,[26],0.01 µg/mL
same,MIC,[27],0.1 µg/mL
same,MIC,[28],0.03 µg/mL
same,MIC,[29],0.03 µg/mL
same,MIC,[30],0.8 µg/mL
same,MIC,[31],0.8 µg/mL
same,MIC,[32],0.8 µg/mL
same,MIC,[33],0.8 µg/mL
same,MIC,[34],0.2 µg/mL
same,MIC,[35],0.2 µg/mL
same,MIC,[36],0.1 µg/mL
same,MIC,[37],0.05 µg/mL
same,MIC,[38],0.1 µg/mL
same,MIC,[47],0.1 µg/mL
same,MIC,[39],0.4 µg/mL
same,MIC,[40],0.05 µg/mL
same,MIC,[41],0.2 µg/mL
same,MIC,[42],0.2 µg/mL
same,MIC,[43],0.2 µg/mL
same,MIC,[44],< 0.01 µg/mL
same,MIC,[45],0.01 µg/mL
same,MIC,[46],< 0.01 µg/mL
C[C@@H](O)[C@H]1C(=O)N2C(C(=O)O)=C(S[C@@H]3CN[C@H](C(=O)N(C)C)C3)[C@H](C)[C@H]12 [MEROPENEM],MIC,[1],0.05 µg/mL
same,MIC,[2],0.03 µg/mL
same,MIC,[3],0.01 µg/mL
same,MIC,[4],0.05 µg/mL
same,MIC,[5],0.05 µg/mL
same,MIC,[6],0.2 µg/mL
same,MIC,[7],0.1 µg/mL
same,MIC,[8],0.1 µg/mL
same,MIC,[9],0.1 µg/mL
same,MIC,[10],0.1 µg/mL
same,MIC,[11],0.025 µg/mL
same,MIC,[12],0.013 µg/mL
same,MIC,[13],< 0.01 µg/mL
same,MIC,[14],0.098 µg/mL
same,MIC,[15],0.098 µg/mL
same,MIC,[16],0.025 µg/mL
same,MIC,[17],0.195 µg/mL
same,MIC,[18],0.025 µg/mL
same,MIC,[19],0.049 µg/mL
same,MIC,[20],0.025 µg/mL
same,MIC,[21],0.1 µg/mL
same,MIC,[22],0.1 µg/mL
same,MIC,[23],0.05 µg/mL
same,MIC,[24],0.05 µg/mL
same,MIC,[25],0.01 µg/mL
same,MIC,[26],0.05 µg/mL
same,MIC,[27],0.8 µg/mL
same,MIC,[28],0.05 µg/mL
same,MIC,[29],0.05 µg/mL
same,MIC,[30],0.8 µg/mL
same,MIC,[31],0.4 µg/mL
same,MIC,[32],0.2 µg/mL
same,MIC,[33],0.4 µg/mL
same,MIC,[34],0.05 µg/mL
same,MIC,[35],0.03 µg/mL
same,MIC,[36],0.05 µg/mL
same,MIC,[37],0.01 µg/mL
same,MIC,[38],0.03 µg/mL
same,MIC,[39],0.05 µg/mL
same,MIC,[40],0.01 µg/mL
same,MIC,[41],0.1 µg/mL
same,MIC,[42],0.03 µg/mL
same,MIC,[43],0.05 µg/mL
same,MIC,[44],0.05 µg/mL
same,MIC,[45],0.05 µg/mL
same,MIC,[46],0.03 µg/mL
